What was measured:
MDA-MB-231 [1] = assay: Antiproliferative activity against human MDA-MB-231 cells measured after 48 hrs by MTT assay; format: functional, cell-based; settings: MDA-MB-231, 48 h
A549 [2] = assay: Anticancer activity against human A549 cells incubated for 24 hrs by MTT assay; format: functional, cell-based; settings: A549, 24 h
A549 [3] = assay: Induction of apoptosis in human A549 cells assessed as increase in caspase-3 level at 1 uM measured after 48 hrs by ELISA method relative to control (RVB = 9.1 %); format: functional
Tubulin = assay: Inhibition of tubulin polymerization (unknown origin) by fluorescence based assay; format: protein-complex assay, Homo sapiens
A549 [4] = assay: Induction of apoptosis in human A549 cells assessed as increase in caspase-3 level at 0.5 uM measured after 48 hrs by ELISA method relative to control; format: functional
OVCAR-5 = assay: Cytotoxicity against human OVCAR-5 cells assessed as inhibition of cell growth; format: functional, cell-based
A-375 [5] = assay: Antiproliferative activity against human A375 cells measured after 48 hrs by MTT assay; format: functional, cell-based; settings: A-375, 48 h
UACC-62 [6] = assay: Induction of apoptosis in human UACC-62 cells assessed as increase in caspase-3/7 release at 0.18 uM relative to control; format: functional
[7] = Inhibition of BRAF V600E mutant in MEF cells incubated for 90 mins; format: cell-based, Mus musculus
SK-MEL-28 = assay: Antiproliferative activity against human SK-MEL-28 cells measured after 48 hrs by MTT assay; format: functional, cell-based; settings: SK-MEL-28, 48 h
MDA-MB-435 = assay: Antiproliferative activity against human MDA-MB-435 cells measured after 48 hrs by MTT assay; format: functional, cell-based; settings: MDA-MB-435, 48 h
UACC-62 [8] = assay: Antiproliferative activity against human UACC-62 cells measured after 48 hrs by MTT assay; format: functional, cell-based; settings: UACC-62, 48 h
[9] = Inhibition of tubulin polymerisation in human A549; format: cell-based
A549 [10] = assay: Inhibition of tubulin polymerisation in human A549 cells relative to control; format: cell-based; settings: dose or concentration not given here
A549 [11] = assay: Antiproliferative activity against human A549 cells incubated for 48 hrs by MTT assay; format: functional, cell-based; settings: A549, 48 h
A549 [12] = assay: Antiproliferative activity human A549 cells; format: functional, cell-based
MCF7 = assay: Antiproliferative activity human MCF7 cells; format: functional, cell-based
MDA-MB-231 [13] = assay: Antiproliferative activity human MDA-MB-231 cells; format: functional, cell-based
MDA-MB-231 [14] = assay: Induction of cell cycle arrest in human MDA-MB-231 cells assessed as accumulation of cells at G0/G1 phase measured at 1 uM incubated for 24 hrs by flow cytometric analysis relative to control; format: functional
HepG2 = assay: Cytotoxicity against human HepG2 cells expressing EGFR assessed as reduction in cell viability incubated for 24 hrs by MTT assay; format: functional, cell-based; settings: HepG2, 24 h
L02 = assay: Cytotoxicity against human HL7702 cells expressing EGFR assessed as reduction in cell viability incubated for 24 hrs by MTT assay; format: functional, cell-based; settings: L02, 24 h
HUVEC = assay: Cytotoxicity against HUVEC expressing EGFR assessed as reduction in cell viability incubated for 24 hrs by MTT assay; format: functional, cell-based; settings: Homo sapiens
HeLa = assay: Cytotoxicity against human HeLa cells expressing EGFR assessed as reduction in cell viability incubated for 24 hrs by MTT assay; format: functional, cell-based
[15] = Cytotoxicity against human L132 cells by MTT assay; format: toxicity, cell-based
[16] = biological target: Serine/threonine-protein kinase B-raf (Homo sapiens, UniProt P15056, V600E); assay: Inhibition of human BRAF V600E mutant using MEK1 as substrate in presence of ATP
Ovarian cancer cell line = assay: Cytotoxicity against human ovarian cancer cell line assessed as reduction in cell viability by MTT assay relative to control; format: functional
Prostatic carcinoma cell = assay: Cytotoxicity against human prostatic carcinoma cell assessed as reduction in cell viability by MTT assay relative to control; format: functional
Leukemic tumor cell line = assay: Cytotoxicity against human leukemic tumor cell line assessed as reduction in cell viability by MTT assay relative to control; format: functional
CNS carcinoma cell = assay: Cytotoxicity against human CNS carcinoma cells assessed as reduction in cell viability by MTT assay relative to control; format: functional
Melanoma tumor cell line = assay: Cytotoxicity against human melanoma tumor cell line assessed as reduction in cell viability by MTT assay relative to control; format: functional
[17] = test system: Non-small cell lung cancer cell line; assay: Cytotoxicity against human non-small cell lung cancer cell line assessed as reduction in cell viability by MTT assay relative to control; format: functional
[18] = Cytotoxicity against human Colon carcinoma cells assessed as reduction in cell viability by MTT assay relative to control; format: functional
A-375 [19] = assay: Cytotoxicity against human A-375 cells by MTT assay; format: functional, cell-based
Breast carcinoma cell = assay: Cytotoxicity against human breast cancer cell line assessed as reduction in cell viability by MTT assay relative to control; format: functional
Renal cancer cell line = assay: Cytotoxicity against human renal cancer cell line assessed as reduction in cell viability by MTT assay relative to control; format: functional
SR [20] = assay: Anticancer activity against human SR cells incubated for 48 hrs by SRB staining assay; format: functional
MDA-MB-231 [21] = assay: Anticancer activity against human MDA-MB-231 cells incubated for 48 hrs by SRB staining assay; format: functional
CCRF-CEM = assay: Anticancer activity against human CCRF-CEM cells incubated for 48 hrs by SRB staining assay; format: functional
HCT-15 = assay: Anticancer activity against human HCT-15 cells incubated for 48 hrs by SRB staining assay; format: functional
DU-145 = assay: Anticancer activity against human DU-145 cells incubated for 48 hrs by SRB staining assay relative to control; format: functional
NCI-H460 = assay: Anticancer activity against human NCI-H460 cells incubated for 48 hrs by SRB staining assay; format: functional
CAKI-1 = assay: Anticancer activity against human CAKI-1 cells incubated for 48 hrs by SRB staining assay; format: functional
HL-60(TB) = assay: Anticancer activity against human HL-60(TB) cells incubated for 48 hrs by SRB staining assay relative to control; format: functional
SF-268 = assay: Anticancer activity against human SF-268 cells incubated for 48 hrs by SRB staining assay; format: functional
UO-31 = assay: Anticancer activity against human UO-31 cells incubated for 48 hrs by SRB staining assay; format: functional
NCI-H322M = assay: Anticancer activity against human NCI-H322M cells incubated for 48 hrs by SRB staining assay; format: functional
OVCAR-3 = assay: Anticancer activity against human OVCAR-3 cells incubated for 48 hrs by SRB staining assay; format: functional
SR [22] = assay: Anticancer activity against human SR cells incubated for 48 hrs by SRB staining assay relative to control; format: functional
HCT-116 = assay: Anticancer activity against human HCT-116 cells measured after 48 hrs by MTT assay; format: functional, cell-based; settings: HCT-116, 48 h

Sequence of Serine/threonine-protein kinase B-raf (P15056 2-766 V600E limits assumed): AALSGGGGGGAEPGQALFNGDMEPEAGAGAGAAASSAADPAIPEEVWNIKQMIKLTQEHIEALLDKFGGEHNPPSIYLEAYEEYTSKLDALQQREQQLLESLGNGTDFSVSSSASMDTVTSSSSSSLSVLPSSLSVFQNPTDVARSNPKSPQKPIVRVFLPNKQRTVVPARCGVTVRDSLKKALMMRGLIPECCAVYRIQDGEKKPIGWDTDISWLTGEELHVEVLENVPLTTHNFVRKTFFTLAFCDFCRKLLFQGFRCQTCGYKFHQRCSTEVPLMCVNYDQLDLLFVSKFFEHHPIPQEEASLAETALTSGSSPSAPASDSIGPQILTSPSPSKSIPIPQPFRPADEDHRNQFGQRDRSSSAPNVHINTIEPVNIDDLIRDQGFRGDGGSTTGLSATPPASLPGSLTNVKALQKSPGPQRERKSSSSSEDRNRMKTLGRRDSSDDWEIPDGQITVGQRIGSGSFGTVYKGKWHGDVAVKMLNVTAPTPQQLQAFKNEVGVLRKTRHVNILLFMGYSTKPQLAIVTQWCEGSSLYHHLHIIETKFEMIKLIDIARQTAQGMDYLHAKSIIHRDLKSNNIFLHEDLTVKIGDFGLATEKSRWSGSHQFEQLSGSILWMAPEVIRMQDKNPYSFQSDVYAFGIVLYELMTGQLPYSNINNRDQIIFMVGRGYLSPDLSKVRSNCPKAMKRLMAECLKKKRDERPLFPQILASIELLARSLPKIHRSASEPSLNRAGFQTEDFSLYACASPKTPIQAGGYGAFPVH

COc1ccc(C(=O)/C=C/c2cn3c(n2)sc2ccccc23)cc1
IC50 (MDA-MB-231 [1]): 1200 nM

COc1ccc(-c2sc3nc(-c4ccc(F)cc4)c(/C=C/C(=O)c4ccccn4)n3c2-c2ccc(OC)cc2)cc1
IC50 (A549 [2]): 640 nM
Activity (A549 [3]): 69.07%
IC50 (Tubulin): 2350 nM
Activity (A549 [4]): 64.14%

COc1ccc(-c2nc3sccn3c2/C=C/C(=O)c2cc(OC)c(OC)c(OC)c2)cc1
IC50 (OVCAR-5): 1990 nM

O=C(NCCNc1nccc(-c2c(-c3cccc(O)c3)nc3sccn23)n1)c1ccccc1
IC50 (A-375 [5]): 180 nM
Activity (UACC-62 [6]): 53.33%
IC50 [7]: 190 nM
IC50 (SK-MEL-28): 180 nM
IC50 (MDA-MB-435): 180 nM
IC50 (UACC-62 [8]): 180 nM

COC(=O)Nc1nc2cc(C(=O)c3cccs3)ccc2[nH]1 [NOCODAZOLE]
IC50 [9]: 1990 nM
inhibition (A549 [10]): 64.7%
IC50 (A549 [11]): 1810 nM
Activity (A549 [3]): 62.9%
IC50 (A549 [12]): 1140 nM
IC50 (MDA-MB-231 [1]): 1900 nM
IC50 (MCF7): 2370 nM
IC50 (MDA-MB-231 [13]): 2370 nM

COc1ccc(-c2nc3sccn3c2/C=N/NC(=O)c2cccc(O)c2)cc1
Activity (MDA-MB-231 [14]): 72.4%

O=C(Cc1csc2nc3ccccc3n12)Nc1cccc2ccccc12
IC50 (HepG2): > 100000 nM
IC50 (L02): > 100000 nM
IC50 (HUVEC): > 100000 nM
IC50 (HeLa): 2490 nM

COc1cc(C(=O)N/N=C/c2c(-c3ccc(F)cc3)nc3sccn23)cc(OC)c1OC
Activity (MDA-MB-231 [14]): 75.8%

O=[N+]([O-])c1cccc(-c2nc3sccn3c2-c2ccnc(NCCCNS(=O)(=O)c3ccc(F)cc3)n2)c1
IC50 [15]: 76000 nM
IC50 [16]: 35 nM
inhibition (INH) (Ovarian cancer cell line): >80%
inhibition (INH) (Prostatic carcinoma cell): >90%
inhibition (INH) (Leukemic tumor cell line): >90%
inhibition (INH) (CNS carcinoma cell): 70%
inhibition (INH) (Melanoma tumor cell line): 100%
inhibition (INH) [17]: >80%
inhibition (INH) [18]: >80%
IC50 (A-375 [19]): 7960 nM
inhibition (INH) (Breast carcinoma cell): >80%
inhibition (INH) (Renal cancer cell line): >70%

O=C(Cc1csc2nc(-c3ccc(Cl)cc3)cn12)N/N=C/c1ccccc1O
GI50 (SR [20]): 603 nM
GI50 (MDA-MB-231 [21]): 1580 nM
GI50 (CCRF-CEM): 741 nM
GI50 (HCT-15): 468 nM
Activity (DU-145): 108.65%
GI50 (NCI-H460): 1380 nM
GI50 (CAKI-1): 776 nM
Activity (HL-60(TB)): 103.5%
GI50 (SF-268): 1260 nM
GI50 (UO-31): 501 nM
GI50 (NCI-H322M): 1550 nM
GI50 (OVCAR-3): 363 nM
Activity (SR [22]): 11.51%

C/C(=N\N=C1\S/C(=N\Nc2ccccc2)C(=O)N1N)c1sc2nc(-c3ccc(C)cc3)cn2c1C
IC50 (HCT-116): 1100 nM

COc1ccc2c(c1)sc1nc(/C=C/C(=O)c3ccc(OC)c(O)c3)cn12
IC50 (MDA-MB-231 [1]): 1300 nM

Source: ChEMBL document CHEMBL5096145, “Evaluation of imidazo[2,1-b]thiazole-based anticancer agents in one decade (2011-2020): Current status and future prospects” (Bioorg Med Chem, 2021)
